Experimental data reported in patent publication US20240353338A1 (priority 2023, published 2024).

Tested on: early Delta variant of SARS-CoV-2
Type: cell-based

C[C@@H](OC(C)(C)C)[C@H](NC(=O)OCc1ccccc1)C(=O)N[C@@H](CC1CCCCC1)C(=O)N[C@H](C=O)C[C@@H]1CCNC1=O [MPI8]
antiviral effectiveness (virus growth by reverse transcriptase quantitative PCR): inhibition of virus growth
